Measurements from paper PMC8934569 (Cancer chemotherapy and pharmacology, 2021).

Test: Drug-related adverse events graded by NCI CTCAE version 4.0
Type: in vivo, human
[1] = Group 1 N=31: veliparib Days 1-4 + cyclophosphamide Day 3
[2] = Group 2 N=22: veliparib Days 1-4 + AC Day 3
[3] = Groups 3 and 4 N=27: veliparib Days 1-7 or 1-14 + AC Day 1

C[C@]1(c2nc3c(C(N)=O)cccc3[nH]2)CCCN1 [veliparib, 2-[(R)-2-methylpyrrolidin-2-yl]-1H-benzimidazole-4-carboxamide]
14 (52) n (%): White blood cell decreased, Gr 4 [3]
8 (26) n (%): Anemia, All Grades [1] | Lymphocyte count decreased, All Grades [1]
25 (93) n (%): Lymphocyte count decreased, All Grades [3]
9 (29) n (%): White blood cell decreased, All Grades [1]
4 (18) n (%): Anemia, Gr 3 [2] | Platelet count decreased, Gr 3 [2]
11 (41) n (%): Anemia, Gr 3 [3]
3 (11) n (%): Febrile neutropenia, All Grades [3] | Febrile neutropenia, Gr 3 [3]
2 (9) n (%): Febrile neutropenia, Gr 3 [2] | Febrile neutropenia, Gr 4 [2] | Lymphocyte count decreased, Gr 4 [2] | Platelet count decreased, Gr 4 [2]
28%: Patients given growth factor support after cycle 1 (across the whole trial (n=22 of 80))
2 (6) n (%): Anemia, Gr 3 [1] | Lymphocyte count decreased, Gr 4 [1]
13 (59) n (%): Lymphocyte count decreased, All Grades [2] | Neutrophil count decreased, Gr 4 [2]
6 (22) n (%): Nausea, All Grades [3] | Platelet count decreased, Gr 4 [3]
11 (35) n (%): Neutrophil count decreased, All Grades [1]
23 patients: Patients requiring a dose reduction of veliparib (overall, 80 patients enrolled)
7 (26) n (%): Platelet count decreased, Gr 3 [3]
18 (67) n (%): Anemia, All Grades [3]
24 (89) n (%): White blood cell decreased, All Grades [3]
3 (10) n (%): Neutrophil count decreased, Gr 4 [1]
1 (5) n (%): Dehydration, All Grades [2] | Dehydration, Gr 3 [2] | Hyponatremia, All Grades [2] | Hyponatremia, Gr 3 [2] | Sepsis, All Grades [2] | Sepsis, Gr 4 [2]
23 (85) n (%): Lymphocyte count decreased, Gr 3 [3]
21 (95) n (%): White blood cell decreased, All Grades [2]
3 (14) n (%): Febrile neutropenia, All Grades [2] | Vomiting, All Grades [2]
10 (45) n (%): Lymphocyte count decreased, Gr 3 [2] | Nausea, All Grades [2] | Neutrophil count decreased, Gr 3 [2]
19 (70) n (%): Neutrophil count decreased, Gr 4 [3] | Platelet count decreased, All Grades [3]
12 (39) n (%): Fatigue, All Grades [1]
6 (19) n (%): White blood cell decreased, Gr 3 [1]
19 (86) n (%): Neutrophil count decreased, All Grades [2]
4 (15) n (%): Fatigue, All Grades [3] | Vomiting, All Grades [3]
0 (0) n (%): Anemia, Gr 4 [1] | Anorexia, All Grades [1] | Anorexia, Gr 3 [1] | Anorexia, Gr 4 [1] | Dehydration, All Grades [1] | Dehydration, Gr 3 [1] | Dehydration, Gr 4 [1] | Fatigue, Gr 4 [1] | Febrile neutropenia, Gr 4 [1] | Hyponatremia, All Grades [1] | Hyponatremia, Gr 3 [1] | Hyponatremia, Gr 4 [1] | Hypophosphatemia, Gr 4 [1] | Hypotension, Gr 4 [1] | Nausea, Gr 3 [1] | Nausea, Gr 4 [1] | Sepsis, All Grades [1] | Sepsis, Gr 3 [1] | Sepsis, Gr 4 [1] | Vomiting, Gr 3 [1] | Vomiting, Gr 4 [1] | Anemia, Gr 4 [2] | Anorexia, Gr 3 [2] | Anorexia, Gr 4 [2] | Dehydration, Gr 4 [2] | Fatigue, Gr 3 [2] | Fatigue, Gr 4 [2] | Hyponatremia, Gr 4 [2] | Hypophosphatemia, All Grades [2] | Hypophosphatemia, Gr 3 [2] | Hypophosphatemia, Gr 4 [2] | Hypotension, All Grades [2] | Hypotension, Gr 3 [2] | Hypotension, Gr 4 [2] | Nausea, Gr 3 [2] | Nausea, Gr 4 [2] | Sepsis, Gr 3 [2] | Vomiting, Gr 3 [2] | Vomiting, Gr 4 [2] | Anorexia, All Grades [3] | Anorexia, Gr 3 [3] | Anorexia, Gr 4 [3] | Dehydration, All Grades [3] | Dehydration, Gr 3 [3] | Dehydration, Gr 4 [3] | Fatigue, Gr 3 [3] | Fatigue, Gr 4 [3] | Febrile neutropenia, Gr 4 [3] | Hyponatremia, All Grades [3] | Hyponatremia, Gr 3 [3] | Hyponatremia, Gr 4 [3] | Hypophosphatemia, All Grades [3] | Hypophosphatemia, Gr 3 [3] | Hypophosphatemia, Gr 4 [3] | Hypotension, All Grades [3] | Hypotension, Gr 3 [3] | Hypotension, Gr 4 [3] | Nausea, Gr 3 [3] | Nausea, Gr 4 [3] | Sepsis, All Grades [3] | Sepsis, Gr 3 [3] | Sepsis, Gr 4 [3] | Vomiting, Gr 3 [3] | Vomiting, Gr 4 [3]
16 (73) n (%): Anemia, All Grades [2] | Fatigue, All Grades [2]
4 (13) n (%): Lymphocyte count decreased, Gr 3 [1] | Neutrophil count decreased, Gr 3 [1]
11 (50) n (%): White blood cell decreased, Gr 3 [2]
5 (23) n (%): Anorexia, All Grades [2]
1 (4) n (%): Anemia, Gr 4 [3]
21 (78) n (%): Neutrophil count decreased, All Grades [3] | White blood cell decreased, Gr 3 [3]
1 (3) n (%): Fatigue, Gr 3 [1] | Febrile neutropenia, All Grades [1] | Febrile neutropenia, Gr 3 [1] | Hypophosphatemia, All Grades [1] | Hypophosphatemia, Gr 3 [1] | Hypotension, All Grades [1] | Hypotension, Gr 3 [1] | Platelet count decreased, Gr 3 [1] | Platelet count decreased, Gr 4 [1] | White blood cell decreased, Gr 4 [1]
14 (64) n (%): Platelet count decreased, All Grades [2] | White blood cell decreased, Gr 4 [2]
5 (16) n (%): Nausea, All Grades [1] | Platelet count decreased, All Grades [1] | Vomiting, All Grades [1]
